How the values were obtained:
[1] = Aripiprazole loading into ammonium sulfate or sodium sulfate liposomes; type: physicochemical; conditions: ratio of ammonium sulfate to sodium sulfate liposomes
Procedure: Liposomes (HSPC/Chol/PEG-DSPE 3/2/0.15 mol/mol/mol) containing 250 mM ammonium sulfate or 250 mM sodium sulfate were diluted in 1 mL of 50 mM citric acid, 10% (wt/wt) sucrose, pH 4.0 to a concentration of 6 mM phospholipid. 0.3 mg of aripiprazole was added from a stock solution of 15 mg/mL in DMSO, so that the final DMSO concentration was 2% (v/v). Fine precipitates were immediately observed after the drug was added to both liposome samples. The samples were heated at 65° C. for 30 min, the cooled on ice. The samples were filtered through a 0.2 um polyethersulfone syringe filter to remove any drug precipitates, followed by purification on a Sephadex G25 column equilibrated with HBS, pH 6.5 to remove any soluble extraliposome drug. The turbid fraction was collected and analyzed for lipid and drug as described above.

[2] = Aripiprazole precipitates from various solvents, absorbance at 600 nm with liposomes; type: physicochemical; conditions: drug initially dissolved in DMSO, 1-4-methylpyrrolidone, diethylenemonoethylether or polyethyleneglycol (MW400); 7.5% solvent; 65 C 30 min
Procedure: Aripiprazole was dissolved in a range of solvents indicated below at 4 mg/mL. Liposomes composed of HSPC/Chol/PEG-DSPE (3/2/0.15 mol/mol/mol) that were prepared in 250 mM ammonium sulfate were used and diluted to 6 mM in Hepes buffered sucrose 10% (wt/wt) (HBSuc pH 6.5). 0.3 mg of drug was introduced by slow addition of each solvent while vortexing. The final solvent concentration was 7.5% for all samples. As controls, the drug was added from each solvent to the same volume of HBSuc pH 6.5 without the liposomes. The samples were heated at 65° C. for 30 min then cooled on ice.

O=C1CCc2ccc(OCCCCN3CCN(c4cccc(Cl)c4Cl)CC3)cc2N1 [aripiprazole]
% Efficiency NH4SO4/NaSO4 [1]: 49.3
clarification of drug precipitate on incubation with liposomes (absorbance at 600 nm) [2]: clarified the drug precipitate
